# Measured values as given in patent US20240382484A1, “COMPOSITION FOR TREATING, PREVENTING, OR AMELIORATING MELANOMA AND METHOD THEREOF” (Thomas Jefferson University, priority 2021, published 2024).
# Assays:
# [1] = system: WM1361A and WM1366 PDPK1-depleted clones; experiment: Cell growth of PDPK1-depleted (sgRNA knockout) clones in response to MEKi; type: cell-based, human; conditions: for decrease of the half-maximum inhibitory concentration by PDPK1 depletion: WM1361A and WM1366, 5 days, PDPK1-depleted clones vs parental clone; for cell proliferation, MEKi combined with PDPK1 depletion: WM1361A and WM1366 KO1 and KO2 clones
# Procedure: (§1) FIGS. 3A-3B: PDPK1 depletion by two individual sgRNAs in WM1361A (FIG. 3A) or WM1366 (FIG. 3B) cells were analyzed by immunoblot. FIGS. 3C-3D, Cell growth of WM1361A (FIG. 3C) or WM1366 (FIG. 3D) parental clones (Cas9) and PDPK1-depleted clones by two individual sgRNAs (KO1 and KO2) treated with vehicle (DMSO) or trametinib (Tram) was monitored by IncuCyte every 2 hours. Media were replaced twice with fresh drugs during culture. Data are represented as the mean±SEM of three biological independent experiments. p values were calculated with an unpaired two-tailed t test. n.s., not significant. FIGS. 3E-3F, Cellular growth in response to trametinib at the indicated doses for 5 days in WM1361A (FIG. 3E) or WM1366 (FIG. 3F) parental clone (iCas9) and PDPK1-depleted clones (KO1 and K02). Media were replaced once with drugs during culture. Data are represented as dots of three biological independent experiments. FIGS. 3G-3J, PDPK1 knockdown by ON-target control siRNAs and two individual siRNAs in SK-MEL-30 (FIG. 3G) or SK-MEL-173 cells (FIG. 3I) was analyzed by immunoblot. Cellular growth in response to trametinib at the indicated doses for 3 days in SK-MEL-30 (FIG. 3H) or SK-MEL-173 (FIG. 3J) control cells (siCtrl) and PDPK1-knockdown cells (siPDPK1s). Data are represented as dots of at least three biological independent experiments.
# FIG. 12A-12B: Cell growth of WM1361A (FIG. 12A) or WM1366 (FIG. 12B) parental clone (Cas9) and PDPK1-depleted clones (KO1 and K02) treated with vehicle (DMSO) or PD0325901 (PD) was monitored by IncuCyte every 2 hours. Media were replaced twice with drugs during culture. Data are represented as the mean±SEM of three biological independent experiment. p values were calculated with an unpaired two-tailed t test. n.s., not significant. FIGS. 12C-12D, Cellular growth in response to PD0325901 at the indicated doses for 5 days in WM1361A (FIG. 12C) or WM1366 (FIG. 12D) parental clone (iCas9) and PDPK1-depleted clones (KO1 and K02). Media were replaced once with drugs during culture. Data are represented as dots of three biological independent experiments. FIG. 12E-12F, Cellular growth in response to PD0325901 at the indicated doses for 3 days in SK-MEL-30 (FIG. 12E) or SK-MEL-173 (FIG. 12F) control cells (siCtrl) and PDPK1-knockdown cells (siPDPK1s). Data are represented as dots of at least three biological independent experiments.
# To test whether the synergistic effects of GSK2334470 was PDPK1-dependent, the present study generated PDPK1 knockout clones using high gene-editing efficiency clones of WM1361A and WM1366 cells. Depletion of PDPK1 by two different sgRNAs in both cell lines (FIGS. 3A-3B) attenuated cellular proliferation (FIGS. 3C-3D). […]
# [2] = system: WM1361A, WM1366, SK-MEL-30 or SK-MEL-173 cells; experiment: 7-day cell growth monitored by IncuCyte; type: cell-based, human; conditions: 7-day treatment course
# Procedure: FIG. 2A: NRAS mutant melanoma cell line WM1361A, WM1366, SK-MEL-30, SK-MEL-173, 1007 and 1014 were treated for 72 hours as indicated with GSK2334470 and trametinib and analyzed for cell density by IncuCyte. Synergy graphs were generated utilizing Combenefit Software with Loewe method. Data are represented as the mean from three biological independent experiments. FIG. 2B: WM1361A, WM1366, SK-MEL-30 or SK-MEL-173 cells were treated with GSK2334470 (PDPK1i) and trametinib (tram) alone or in combination (comb) at the indicated concentrations for 7 days. Cell growth was monitored by IncuCyte every 2 hours. Media were replaced twice with drugs during culture. Data are represented as the mean±SEM of three biological independent experiments. p values were calculated with an unpaired two-tailed t test. n.s., not significant.
# FIG. 11A: WM1361A, WM1366, SK-MEL-30 and SK-MEL-173 cells were treated for 72 hours as indicated with GSK2334470 and PD0325901 and analyzed for cell density by IncuCyte. […] Cell growth was monitored by IncuCyte every 2 hours. Data are represented as the mean±SEM of three biological independent experiments. p values were calculated with an unpaired two-tailed t test. n.s., not significant.
# For cell proliferation and drug response, cells were monitored by IncuCyte® (Essen Bioscience, Ann Arbor, MI) every 2 hours.
# [3] = system: SK-MEL-30 and SK-MEL-173 PDPK1-knockdown cells; experiment: Cellular growth of siRNA PDPK1-knockdown cells in response to MEKi; type: cell-based, human; conditions: SK-MEL-30 and SK-MEL-173, 3 days, siPDPK1 vs siCtrl
# Procedure: as §1, with “Data are represented as dots of three biological independent experiments.” left out, “Cellular growth in response to trametinib at the indicated doses for 3 days in SK-MEL-30 (FIG. 3H) or SK-MEL-173 (FIG. 3J) control cells (siCtrl) and PDPK1-knockdown cells (siPDPK1s). Data are represented as dots of at least three biological independent experiments.” left out
# FIG. 12A-12B: Cell growth of WM1361A (FIG. 12A) or WM1366 (FIG. 12B) parental clone (Cas9) and PDPK1-depleted clones (KO1 and K02) treated with vehicle (DMSO) or PD0325901 (PD) was monitored by IncuCyte every 2 hours. […] Data are represented as the mean±SEM of three biological independent experiment. p values were calculated with an unpaired two-tailed t test. n.s., not significant. […]
# [4] = system: Nras Q61K mouse melanoma isografts of 1014 cells; experiment: 1014 allograft model in immunocompetent B6 mice; type: in vivo; conditions: trametinib chow and/or GSK2334470 injection three times per week
Structure (SMILES),decrease of the half-maximum inhibitory concentration by PDPK1 depletion [1],"cell proliferation, MEKi combined with PDPK1 depletion [1]","cell proliferation, MEKi combined with PDPK1i (GSK2334470) [2]",half-maximum inhibitory concentration upon PDPK1 knockdown [3],tumor growth [4]
"O=C(NOC[C@H](O)CO)c1ccc(F)c(F)c1Nc1ccc(I)cc1F [PD0325901, (R)—N-(2,3-dihydroxypropoxy)-3,4-difluoro-2-((2-fluoro-4-iodophenyl)amino)benzamide]",approximately 4 fold,effectively inhibited,profoundly inhibited,decreased,
"CC(=O)Nc1cccc(-n2c(=O)n(C3CC3)c(=O)c3c(Nc4ccc(I)cc4F)n(C)c(=O)c(C)c32)c1 [trametinib, N-(3-(3-cyclopropyl-5-((2-fluoro-4-iodophenyl)amino)-6,8-dimethyl-2,4,7-trioxo-3,4,6,7-tetrahydropyrido[4,3-d]pyrimidin-1(2H)-yl)phenyl)acetamide]",approximately 4 fold,effectively inhibited,profoundly inhibited,decreased,modest delay of tumor growth
